# According to ChEMBL document CHEMBL1125348, “The first mechanism-based inactivators for angiotensin-converting enzyme” (J Med Chem, 1992):
# How the values were obtained:
# Type in all cases: protein assay
# [1] = test system: N#CCC(=O)N[C@@H](Cc1ccccc1)C(=O)N[C@@H](Cc1ccccc1)C(=O)O; experiment: Km for angiotensin I converting enzyme
# [2] = biological target: T1, Angiotensin-converting enzyme (Homo sapiens, UniProt P12821+Q9BYF1); experiment: First order rate constant for angiotensin I converting enzyme
# T1 sequence (P12821 whole entry, looked up): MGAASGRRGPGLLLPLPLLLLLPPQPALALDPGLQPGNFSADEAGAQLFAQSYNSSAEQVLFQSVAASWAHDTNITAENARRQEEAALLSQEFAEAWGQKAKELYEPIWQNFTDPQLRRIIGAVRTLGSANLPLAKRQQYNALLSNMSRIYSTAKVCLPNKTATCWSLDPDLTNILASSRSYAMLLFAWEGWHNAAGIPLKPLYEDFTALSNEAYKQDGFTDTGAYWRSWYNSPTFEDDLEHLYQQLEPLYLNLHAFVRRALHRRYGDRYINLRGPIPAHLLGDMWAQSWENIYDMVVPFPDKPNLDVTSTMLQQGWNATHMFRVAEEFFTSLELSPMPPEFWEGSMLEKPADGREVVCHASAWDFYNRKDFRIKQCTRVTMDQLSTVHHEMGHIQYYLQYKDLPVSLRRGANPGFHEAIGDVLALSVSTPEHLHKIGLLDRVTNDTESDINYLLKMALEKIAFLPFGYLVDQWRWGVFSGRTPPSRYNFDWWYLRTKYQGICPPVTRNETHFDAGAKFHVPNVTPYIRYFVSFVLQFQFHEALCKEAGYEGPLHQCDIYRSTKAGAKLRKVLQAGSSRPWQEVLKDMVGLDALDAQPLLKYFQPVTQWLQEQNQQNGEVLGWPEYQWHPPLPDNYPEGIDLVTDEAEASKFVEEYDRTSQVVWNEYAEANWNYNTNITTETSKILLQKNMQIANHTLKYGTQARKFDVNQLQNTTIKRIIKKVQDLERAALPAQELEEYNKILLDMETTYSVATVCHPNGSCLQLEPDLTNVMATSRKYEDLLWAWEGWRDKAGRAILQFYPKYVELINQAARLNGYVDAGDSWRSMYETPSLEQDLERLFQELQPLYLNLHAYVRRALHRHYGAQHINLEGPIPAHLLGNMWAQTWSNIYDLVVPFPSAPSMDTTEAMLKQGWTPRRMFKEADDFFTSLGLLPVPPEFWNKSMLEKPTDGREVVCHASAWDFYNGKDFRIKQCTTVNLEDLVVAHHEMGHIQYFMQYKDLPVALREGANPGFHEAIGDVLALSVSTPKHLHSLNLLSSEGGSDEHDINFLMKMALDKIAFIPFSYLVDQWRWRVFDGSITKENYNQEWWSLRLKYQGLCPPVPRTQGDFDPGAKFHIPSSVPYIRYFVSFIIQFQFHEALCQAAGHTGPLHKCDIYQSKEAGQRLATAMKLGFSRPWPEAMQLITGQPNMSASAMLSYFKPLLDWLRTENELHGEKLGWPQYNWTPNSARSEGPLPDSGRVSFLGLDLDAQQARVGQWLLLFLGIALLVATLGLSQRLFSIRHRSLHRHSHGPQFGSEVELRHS
# T1 sequence (Q9BYF1 whole entry, looked up): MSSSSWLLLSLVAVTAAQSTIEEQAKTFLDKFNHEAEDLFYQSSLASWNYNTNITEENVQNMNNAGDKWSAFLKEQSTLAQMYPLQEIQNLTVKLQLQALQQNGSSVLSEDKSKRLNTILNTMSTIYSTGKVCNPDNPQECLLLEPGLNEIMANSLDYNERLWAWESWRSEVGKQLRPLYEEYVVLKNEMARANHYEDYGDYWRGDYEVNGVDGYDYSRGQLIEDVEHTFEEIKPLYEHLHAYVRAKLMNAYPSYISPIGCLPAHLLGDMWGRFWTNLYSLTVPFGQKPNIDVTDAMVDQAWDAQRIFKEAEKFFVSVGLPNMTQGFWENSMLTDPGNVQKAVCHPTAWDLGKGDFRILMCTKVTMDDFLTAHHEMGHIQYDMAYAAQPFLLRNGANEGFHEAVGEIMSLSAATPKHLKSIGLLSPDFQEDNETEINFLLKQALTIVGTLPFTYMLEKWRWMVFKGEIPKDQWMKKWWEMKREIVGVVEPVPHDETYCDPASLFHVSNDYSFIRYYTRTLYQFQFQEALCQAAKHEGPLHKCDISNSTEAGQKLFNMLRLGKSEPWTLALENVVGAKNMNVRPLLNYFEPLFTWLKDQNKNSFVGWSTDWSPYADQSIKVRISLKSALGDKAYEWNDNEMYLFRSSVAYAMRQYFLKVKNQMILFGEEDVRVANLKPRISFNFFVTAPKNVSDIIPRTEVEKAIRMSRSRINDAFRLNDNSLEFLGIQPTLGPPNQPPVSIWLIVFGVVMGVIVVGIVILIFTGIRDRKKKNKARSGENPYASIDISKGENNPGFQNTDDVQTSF
# [3] = biological target: T1, Angiotensin-converting enzyme; experiment: Inhibition of hydrolysis of N-[3-(2-furyl)acryloyll-Phe-Gly-Gly7 by angiotensin I converting enzyme
# [4] = biological target: T1, Angiotensin-converting enzyme; experiment: kinact for angiotensin I converting enzyme
# Chain of Angiotensin-converting enzyme (Homo sapiens) (Q9BYF1 whole entry, looked up): as above
# Chain of Angiotensin-converting enzyme (Homo sapiens) (P12821 whole entry, looked up): as the sequence (P12821 whole entry, looked up) above
k obs [2],Ki [3],K inact [4],Compound,Km [1]
,,,Angiotensin-converting enzyme (Homo sapiens) (from UniProt P12821+Q9BYF1),10.5 mM
0.000251 s⁻¹,,,C[C@H](NC(=O)CC#N)C(=O)N[C@@H](Cc1ccccc1)C(=O)O,
0.000501 s⁻¹,,,CC(C)C[C@H](NC(=O)[C@H](C)NC(=O)CC#N)C(=O)O,
0.000835 s⁻¹,65 µM,0.08 min⁻¹,N#CCC(=O)N[C@@H](Cc1ccccc1)C(=O)N[C@@H](Cc1ccccc1)C(=O)O,
